In patent US20220257722A1, “COMPOSITIONS AND METHODS OF TREATING AND PREVENTING SYSTEMIC COMPLICATIONS OF ACUTE ILLNESS” (United States Government As Represented By The Department …, priority 2019, published 2022):

Tested on: rat jejunal mucosa
Assay: LPS mucosal-to-serosal transport in Ussing-chambered rat jejunal mucosa (LAL test)
Assay type: cell-based
Settings: for inhibitory effect of GLP-2 on LPS transport during OA/TCA exposure: inhibitor serosal 5 min before GLP-2 100 nM + NVP-728 10 μM; for amount of LPS transport at t=15 min (prior to OA/TCA exposure), in presence of GLP-2 + NVP-728: inhibitor serosal before GLP-2 + NVP-728; for OA/TCA-augmented LPS transport (t=30-45 min): mucosal LPS 10 μg/ml + OA 30 mM/TCA 0.1 mM; for OA/TCA-augmented LPS transport (t=30-45 min) / LPS transport at t=15 min (LPS alone, absence of OA/TCA): drug added 10 or 15 min before LPS; for LPS transport at t=15 min (LPS alone, absence of OA/TCA): mucosal LPS 10 μg/ml
Protocol: Short-circuit current measurements in Ussing chambered preparations. Mucosa-submucosa preparations were prepared from the mid-jejunum (˜20 cm from the pyloric ring) by muscle stripping using fine forceps under a stereomicroscope. Two or four preparations were prepared from one animal. The tissue was then mounted between two hemi-sliders with an aperture=0.3 cm^2 (Physiologic Instruments, San Diego, Calif., USA). Chambers were bathed with serosal and luminal bathing solutions in a volume of 4 ml each, maintained at 37° C. using a water recirculating heating system. The serosal Krebs-Ringer solution contained (in mM) NaCl, 117; KCl, 4.7; MgCl2, 1.2; NaH2PO4, 1.2; CaCl2, 2.5; NaHCO3, 25; glucose, 11; and bubbled with 95% O2-5% CO2 to maintain pH at 7.4. The luminal bathing solution contained NaCl, 136; KCl, 2.6; CaCl2, 1.8; HEPES, 10 (pH 7.0); mannitol, 11; and bubbled with 100% O2. The tissues were short-circuited by a voltage clamp (VCC MC6, Physiologic Instruments) at zero potential difference with automatic compensation for solution resistance. Short-circuit current (Isc) was continuously measured with tissue conductance (Gt) and TEER (Ω·cm^2) determined every 20 sec in order to assess the tissue integrity during the LPS and lipid exposure. The current was recorded by the DataQ system (Physiologic Instruments). IND (10 μM) was added to the serosal bath to eliminate the effects of endogenous prostaglandin production. The tissues were stabilized for ˜30 min before the addition of test chemicals.
LPS movement from mucosal to serosal solution. LPS movement m-to-s was assessed using a LAL test kit (Pierce Chromogenic Endotoxin Quant Kit, Pierce Biotechnology, Rockford, Ill., USA), which eliminates non-specific detection of (1,3)-β-D-glucan, then reduces false-positive LPS measurements. After tissue stabilization, time was set as t=0 min. Fifty μl of the serosal solution was collected at 0 min as a blank sample, followed by collection at t=15, 30 and 45 min. At t=0 min, LPS (10 μg/ml) was added into the mucosal solution. Vehicle (PBS alone), TCA alone (0.1 mM) in PBS or OA (3, 10, 30 mM) with TCA (0.1 mM) in PBS was added into the mucosal solution at t=15 min. The tissues were pretreated with drugs 10 or 15 min before the addition of LPS (i.e. at t=−10 or −15 min). The collected serosal solutions were kept at −80° C. until use. LPS content in the serosal solutions was measured with the LAL test according to the manufacturer's protocol. The value of background at t=0 min was subtracted and the serosal LPS appearance was expressed as Δ[LPS] (EU/ml). In some experiments, FITC-LPS (10 μg/ml) was used instead of LPS. Serosal FITC-LPS content was assessed by FITC fluorescence intensity measurement using a multi-mode microplate reader (Synergy-2, BioTek Instruments, Inc., Winooski, Vt., USA). To detect macromolecule m-to-s movement across the mucosa, FD4 (0.1 mM) was applied into the mucosal bath and serosal FD4 content was assessed by FITC fluorescence intensity measurement.
Ussing chamber study: drug treatment. The following drugs were pretreated by addition to the mucosal (m) or serosal (s) bath 10 or 15 min before LPS addition to the mucosal bath: the lipid raft inhibitor MβCD (1 mM, m), the CD36 inhibitor SSO (0.1 mM, m), the muscarinic agonist CCh (10 μM, s), a competitive substrate for IAP (IAP inhibitor) GP (10 mM, m) (47), GLP-2 (100 nM, s), the dipeptidyl peptidase-4 (DPP4) inhibitor NVP-728 (10 μM, s) (36), the stable GLP-2 analog TDG (100 nM) (13), the insulin-like growth factor-1 (IGF-1) receptor tyrosine kinase inhibitor NVP-AEW-541 (10 μM, s) (22), the epidermal growth factor (EGF) tyrosine kinase inhibitor PD153035 (1 μM, s) (6), the nitric oxide (NO) synthase (NOS) inhibitor L-NAME (0.1 mM, s) and the selective VPAC1 antagonist PG97-269 (1 μM) (26).

[Ac-His^1, D-Phe^2, Lys^15, Arg^16, Leu^27]-VIP(1-7)-GRF(8-27) (HFDAVFTNSYRKVLKRLSARKLLQDIL; HELM PEPTIDE1{[ac].H.[dF].D.A.V.F.T.N.S.Y.R.K.V.L.K.R.L.S.A.R.K.L.L.Q.D.I.L.[am]}$$$$V2.0; SMILES CC[C@H](C)[C@H](NC(=O)[C@H](CC(=O)O)NC(=O)[C@H](CCC(N)=O)NC(=O)[C@H](CC(C)C)NC(=O)[C@H](CC(C)C)NC(=O)[C@H](CCCCN)NC(=O)[C@H](CCCNC(=N)N)NC(=O)[C@H](C)NC(=O)[C@H](CO)NC(=O)[C@H](CC(C)C)NC(=O)[C@H](CCCNC(=N)N)NC(=O)[C@H](CCCCN)NC(=O)[C@H](CC(C)C)NC(=O)[C@@H](NC(=O)[C@H](CCCCN)NC(=O)[C@H](CCCNC(=N)N)NC(=O)[C@H](Cc1ccc(O)cc1)NC(=O)[C@H](CO)NC(=O)[C@H](CC(N)=O)NC(=O)[C@@H](NC(=O)[C@H](Cc1ccccc1)NC(=O)[C@@H](NC(=O)[C@H](C)NC(=O)[C@H](CC(=O)O)NC(=O)[C@@H](Cc1ccccc1)NC(=O)[C@H](Cc1c[nH]cn1)NC(C)=O)C(C)C)[C@@H](C)O)C(C)C)C(=O)N[C@@H](CC(C)C)C(N)=O) [PG97-269]
inhibitory effect of GLP-2 on LPS transport during OA/TCA exposure: reversed
amount of LPS transport at t=15 min (prior to OA/TCA exposure), in presence of GLP-2 + NVP-728: no effect

CC[C@H](C)[C@H](NC(=O)[C@H](Cc1ccccc1)NC(=O)[C@H](CC(=O)O)NC(=O)[C@H](CCCNC(=N)N)NC(=O)[C@H](C)NC(=O)[C@H](C)NC(=O)[C@H](CC(C)C)NC(=O)[C@H](CC(N)=O)NC(=O)[C@H](CC(=O)O)NC(=O)[C@H](CC(C)C)NC(=O)[C@@H](NC(=O)[C@@H](NC(=O)[C@H](CC(N)=O)NC(=O)[C@H](CCSC)NC(=O)[C@H](CCC(=O)O)NC(=O)[C@H](CC(=O)O)NC(=O)[C@H](CO)NC(=O)[C@H](Cc1ccccc1)NC(=O)[C@H](CO)NC(=O)CNC(=O)[C@H](CC(=O)O)NC(=O)CNC(=O)[C@@H](N)Cc1c[nH]cn1)[C@@H](C)O)[C@@H](C)CC)C(=O)N[C@@H](CC(N)=O)C(=O)N[C@@H](Cc1c[nH]c2ccccc12)C(=O)N[C@@H](CC(C)C)C(=O)N[C@H](C(=O)N[C@@H](CCC(N)=O)C(=O)N[C@H](C(=O)N[C@@H](CCCCN)C(=O)N[C@H](C(=O)N[C@H](C(=O)N[C@@H](CC(=O)O)C(=O)O)[C@@H](C)O)[C@@H](C)CC)[C@@H](C)O)[C@@H](C)CC [TDG]
OA/TCA-augmented LPS transport (t=30-45 min): inhibited

CCCCCCCC/C=C\CCCCCCCC(=O)ON1C(=O)CC(S(=O)(=O)O)C1=O (stereo not drawn) [SSO, sulfosuccinimidyl oleate]
OA/TCA-augmented LPS transport (t=30-45 min): abolished
LPS transport at t=15 min (LPS alone, absence of OA/TCA): no effect

methyl-β-cyclodextrin [MβCD]
OA/TCA-augmented LPS transport (t=30-45 min): inhibited
LPS transport at t=15 min (LPS alone, absence of OA/TCA): no effect

COC(=O)[C@@H](N)CCCNC(=N)N[N+](=O)[O-] [L-NAME, Nω-nitro-L-arginine methyl ester]
inhibitory effect of GLP-2 on LPS transport during OA/TCA exposure: reversed
amount of LPS transport at t=15 min (prior to OA/TCA exposure), in presence of GLP-2 + NVP-728: no effect
